From patent publication US20110038948A1, “Methods of Reducing the Production of Reactive Oxygen Species and Methods of Screening or Identifying Compounds and Compositions that Reduce the Production of Reactive Oxygen Species” (UNIVERSITY OF TENNESSEE RESEARCH FOUNDATION, priority 2005, published 2011)

Tests used:
[1] = system: adiponectin; test: Adiponectin expression in 3T3-L1 adipocytes; format: cell-based, mouse; details: 48 h
Procedure: 3T3-L1 pre-adipocytes were incubated at a density of 8000 cells/cm^2 (10 cm^2 dish) and grown in Dulbecco's modified Eagle's medium (DMEM) containing 10% FBS and antibiotics (adipocyte medium) at 37° C. in 5% CO2 in air. Confluent pre-adipocytes were induced to differentiate with a standard differentiation medium consisting of DMEM-F10 (1:1, vol/vol) medium supplemented with 1% fetal bovine serum (FBS), 1 μM dexamethasone, isobutylmethylxanthine (IBMX) (0.5 mM) and antibiotics (1% Penicillin-Streptomycin). Pre-adipocytes were maintained in this differentiation medium for 3 days and subsequently cultured in adipocyte medium. Cultures were re-fed every 2-3 days to allow 90% cells to reach fully differentiation before conducting chemical treatment. […] Cell viability was measured via trypan blue exclusion. Adipocyte and muscle 18s, TNFα, IL-6, IL-8, IL-15 and adiponectin were quantitatively measured using a smart cycler real-time PCR system (Cepheid, Sunnyvale, Calif.) with a TaqMan 1000 Core Reagent Kit (Applied Biosystems, Branchburg, N.J.). […] Reactions of quantitative RT-PCR for standards and unknown samples were also performed according to the instructions of Smart Cycler System (Cepheid, Sunnyvale, Calif.) and TaqMan Real Time PCR Core Kit (Applied Biosystems, Branchburg, N.J.). The mRNA quantitation for each sample was further normalized using the corresponding 18s quantitation.

[2] = system: 3T3-L1 adipocytes; test: Intracellular ROS generation in cultured adipocytes (H2-DCFDA); format: cell-based, mouse; details: compound plus glucose 30 mmol/L, 48 hours
Procedure: 3T3-L1 preadipocytes were incubated at a density of 8000 cells/cm^2 (10 cm^2 dish) and grown in Dulbecco's modified Eagle's medium (DMEM) containing 10% FBS and antibiotics (adipocyte medium) at 37° C. in 5% CO2 in air. Confluent preadipocytes were induced to differentiate with a standard differentiation medium consisting of DMEM-F10 (1:1, vol/vol) medium supplemented with 1% FBS, 1 μM dexamethasone, IBMX (0.5 mM) and antibiotics (1% Penicillin-Streptomycin). Preadipocytes were maintained in this differentiation medium for 3 days and subsequently cultured in adipocyte medium. Cultures were re-fed every 2-3 days to allow 90% of cells to reach full differentiation before conducting chemical treatment. Chemicals were freshly diluted in adipocyte medium before treatment. Cells were washed with fresh adipocyte medium, re-fed with medium containing the different treatments, and incubated at 37° C. in 5% CO2 in air before analysis. Cell viability was measured via trypan blue exclusion. […] Cells were loaded with H2-DCFDA (2 μmol/L) 30 minute before the end of the incubation period (48 h). After washing twice with PBS, cells were scraped and disrupted by sonication on ice (20 s). Fluorescence (emission 543 nm or 527 nm) and DNA content were then measured as described previously. The intensity of fluorescence was expressed as arbitrary units per ng DNA.

[3] = system: 3T3-L1 adipocytes; test: Cytokine antibody array of culture medium; format: cell-based, mouse
Procedure: (§1) RAW 264 macrophages and 3T3-L1 preadipocytes (American Type Culture Collection) were incubated at a density of 8000 cells/cm2 (10 cm2 dish) and grown in Dulbecco's modified Eagle's medium (DMEM) containing 10% FBS and antibiotics (adipocyte medium) at 37° C. in 5% CO2 in air. Confluent 3T3-L1 preadipocytes were induced to differentiate with a standard differentiation medium consisting of DMEM-F10 (1:1, vol/vol) medium supplemented with 1% FBS, 1 μM dexamethasone, IBMX (0.5 mM) and antibiotics (1% Penicillin-Streptomycin). Preadipocytes were maintained in this differentiation medium for 3 days and subsequently cultured in adipocyte medium. Cultures were re-fed every 2-3 days to allow 90% cells to reach fully differentiation for 3T3-L1 adipocytes or grow to a confluence for RAW 264 before conducting chemical treatment.
(§2) Human adipocytes (Zen-Bio, Inc.), 3T3-L1 adipocytes, RAW264 macrophages were obtained and co-cultured by using transwell inserts with 0.4 μm porous membranes (Corning) to separate adipocytes and macrophages. All data are expressed as mean±SEM. Data were evaluated for statistical significance by analysis of one-way or two-way variance (ANOVA; means with different letter differ, p<0.05).
A TansSignal™ mouse cytokine antibody array kit (Panomics, Fremont, Calif.) was used to detect cytokine protein released in culture medium according to the manufacture's instruction. […]

[4] = system: TNFα; test: TNFα expression in RAW 264 macrophages; format: cell-based
Procedure: as §1
(§3) Cells were washed with fresh adipocyte medium, re-fed with medium containing the indicated treatments, and incubated at 37° C. in 5% CO2 for 48 hours before analysis. Cell viability was measured via trypan blue exclusion.
as §2
Adipocyte and muscle 18s, CD14, TNFα, MIP, M-CSF, IL-6 and MCP-1 were quantitatively measured using a Smart Cycler Real Time PCR System (Cepheid, Sunnyvale, Calif.) with a TaqMan 1000 Core Reagent Kit (Applied Biosystems, Branchburg, N.J.). […] Reactions of quantitative RT-PCR for standards and unknown samples were also performed according to the instructions of Smart Cycler System (Cepheid, Sunnyvale, Calif.) and TaqMan Real Time PCR Core Kit (Applied Biosystems, Branchburg, N.J.). The mRNA quantitation for each sample was further normalized using the corresponding 18s quantitation.

[5] = system: IL-6; test: IL-6 expression in RAW 264 macrophages; format: cell-based; details: co-culture with differentiated 3T3-L1 adipocytes
Procedure: as §1, with “Cultures were re-fed every 2-3 days to allow 90% cells to reach fully differentiation for 3T3-L1 adipocytes or grow to a confluence for RAW 264 before conducting chemical treatment.” left out
as §3
as §2, with “p<0.05). […]” for “p<0.05).”

[6] = system: C2C12 myotubes; test: IL-15 release by myotubes (ELISA); format: cell-based, murine; details: C2C12 myotubes, 48 hours
Procedure: IL-15 release in the medium was determined using ELISA. Data are corrected for DNA content. Values are presented as mean±SEM, n=6. Means with different letter differ with p<0.05.

Structure (SMILES)	effect on adiponectin production [1]	effect on high glucose induced ROS production [2]	inflammatory cytokine production ([3]; co-culture of 3T3-L1 adipocytes with macrophages)	production of multiple inflammatory cytokine proteins ([3]; differentiated 3T3-L1 adipocytes cultured alone)	stimulation of TNFα expression ([4]; RAW 264 macrophages cultured alone)	effect on TNFα expression in macrophages ([4]; co-culture with differentiated 3T3-L1 adipocytes)	effect on IL-6 expression in macrophages [5]	effect on IL-15 release [6]
OO [H2O2, hydrogen peroxide]	without significant effect	–	–	–	–	–	–	–
C=C1/C(=C\C=C2/CCC[C@]3(C)[C@@H]([C@H](C)CCCC(C)(C)O)CC[C@@H]23)C[C@@H](O)C[C@@H]1O [calcitriol, 1,25-(OH)2-D3]	–	greater stimulation of ROS production than either glucose alone or glucose plus GDP	further stimulated	up-regulated	91%	further enhanced	further enhanced	inhibitory effects
